What all share (assay type): in vivo
In experiment [1] the test system is bone marrow pro-B cell (B220+CD43+) and pre-B cell (B220+CD43-) populations. Briefly: Bone marrow pro- and pre-B cell differentiation by flow cytometry in treated NZB/W mice. The source says:
Bone marrow cells were flushed in PBS with 1% BSA from the femurs of NZB/W mice following euthanization. Red blood cells (RBCs) were lysed using ammonium chloride potassium (ACK) lysing solution. Single-cell suspensions were then washed and stained with Allo-Phycocyanin (APC)-conjugated […] and Flourescein Isothiocyanate (FITC)-conjugated CD43 anti-mouse mAbs to identify pro-B cell (B220^+ CD43^+) and pre-B cell (B220^+ CD43^−) populations. Pro-B cell populations were further stained with Phycoerythirn (PE)-conjugated BP1 and PECy5 or Peridinin-chlorophyll proteins (PerCP)-conjugated CD24 anti-mouse mAbs to identify fractions A (B220^+ CD43^+ CD24^− BP1^−), B (B220^+ CD43^+ CD24^+ BP1^−), C (B220^+ CD43^+ CD24^lo BP1), and C′ (B220^+ CD43^+ CD24^hi BP1^+). Pre-B cells fractions were further stained with PE-conjugated IgD, and PECy5-conjugated IgM anti-mouse mAbs to identify fractions D (B220^+ CD43^− IgM^− IgD^−), E (B220^+ CD43^− IgM^+ IgD^−) and F (B220^+ CD43^− IgM^+ IgD^+). Fractions were measured by flow cytometric analysis. All antibodies were purchased from eBioscience (San Diego, Calif., USA). Flow cytometry was performed at that College of Veterinary Medicine Flow Cytometry Core Facility using a FACScan flow cytometer (Becton Dickinson, Franklin Lakes, N.J., USA). Flow cytometry data was analyzed using FlowJo Software (Tree Star, Ashland, Oreg., USA).
(§1) NZB/W mice were injected intraperitoneally 5 days/week with the vehicle control (DMSO), ACY-738 treatment at 5 mg/kg (low-dose), or ACY-738 treatment at 20 mg/kg (high-dose) beginning at 22-weeks-of-age until euthanization at 38 weeks-of-age. ACY-738 was received from Acetylon Pharmaceuticals for use in all studies. Proteinuria and weight were measured every 2 weeks and blood was collected every four weeks for sera analysis. Proteinuria was measured by a standard semi-quantitative test using Siemens Uristix dipsticks (Siemens Healthcare, Deerfield, Ill., USA). Results were quantified according to the manufacturer's instructions and scored as follows: dipstick reading of 0 mg/dL=0, trace=1, 30-100 mg/dL=2, 100-300 mg/dL=3, 300-2000 mg/dL=4, and 2000+ mg/dL=5.
Following treatment with ACY-738, harvested bone marrow cells were stained with B220 and CD43 and the percentage of pro- and pre-B cells was determined using flow cytometric analysis. FIG. 2A depicts a representative flow cytometry image of pro-B cell (B220^+ CD43^+) and pre-B cell (B220^+ CD43^−) populations.
(In flow cytometry, cells or beads pass a laser one at a time.)

Experiment [2] concerns Treg cells (CD4+Foxp3+CD25+). Briefly: Splenic Treg phenotype by flow cytometry in treated NZB/W mice. The note with it: 38-week-old NZB/W mice, both doses (5 and 20 mg/kg), vs vehicle control. On the procedure: as §1
A single-cell suspension was obtained from the thymuses and spleens of treated NZB/W mice at 38 weeks-of-age. Briefly, the thymus was removed from each NZB/W mouse and dissociated across a sterile wire mesh in a petri dish containing ice-cold RPMI 1640 medium (Thermo Scientific). RBCs were lysed using RBC lysis buffer and cells were pelleted and washed with PBS. Splenocytes were stained with APC-conjugated CD3, FITC-conjugated CD4, eFluor450 (eF450)-conjugated CD8a, PerCP-CY5.5-conjugated CD25, and PE-conjugated Foxp3. […] Fluorescence was measured using a FACScan flow cytometer and data was analyzed by FlowJo software. […]

Another experiment deals with sera TGF-β and IL-1β. Briefly: Sera IL-1β and TGF-β levels by ELISA in treated NZB/W mice. On the procedure: as §1
IL-1β and TGF-β levels were measured from the sera by ELISA according to the manufacturer's protocol (eBioscience, San Diego, Calif., USA). The plate was read at 450 nm on a microplate spectrophotometer.
IL-1β and TGF-β levels in the sera of NZB/W mice were measured every 4 weeks starting from 22 weeks until euthanization at 38 weeks-of-age (FIG. 8 A-B). At 22 weeks-of-age there were no significant differences in cytokine levels amongst the three groups. As the NZB/W mice aged, sera levels of TGF-β decreased whereas levels of IL-1β increased (FIG. 8 A-B).

Experiment [3] concerns glomerular IgG and C3 deposition. In words: Glomerular immune complex (IgG, C3) deposition by immunofluorescence in treated NZB/W mice. The note with it: for glomerular C3 deposition (score 0-4, fluorescence) / glomerular IgG deposition (score 0-4, fluorescence): vs vehicle control. The procedure: as §1
One half of each kidney was placed in OCT media and snap-frozen in a slurry containing dry ice and 2-methylbutane (Fisher Scientific, Hampton, N.H., USA). Frozen kidney sections were cut into […] sections and stained with goat anti-mouse IgG conjugated to FITC (Pierce) diluted 1:100 or goat anti-mouse C3-FITC (Pierce, Thermo Fisher Scientific, Waltham, Mass., USA) diluted 1:100. Kidney sections were examined by fluorescent microscopy. Sections were scored (0-4) for immune complex deposition by a pathologist in a blinded manner.
5 μM kidney sections were stained with FITC-conjugated C3 or IgG and assessed for fluorescence intensity. (see FIGS. 10A and 10B).

The subject of a further experiment is NZB/W mice. Briefly: SLE-associated renal pathology (PAS-stained kidney sections, glomerular score) in treated NZB/W mice. The procedure:
as §1
At the time of euthanization, the kidneys were removed and cut in half. One half of the kidney from each mouse was fixed in formalin, embedded in paraffin, sectioned, and stained with Periodic acid-Schiff (PAS). Kidney sections were scored (0-4) for glomerular proliferation, inflammation, crescent formation, necrosis, and by a pathologist, Dr. David Caudell, in a blinded manner.
In order to assess renal disease, kidney sections were embedded in paraffin and stained by PAS. […] NZB/W mice treated with DMSO alone had thickened, irregular glomerular basement membranes, increased cellularity, fibrosis and crescent formation (see FIG. 11 A). […] Sections were assessed for glomerular proliferation, inflammation, number of nuclei per glomerulus, crescent formation, and fibrosis by a blinded pathologist, and a glomerular score (0-4) was assigned. NZB/W mice that were treated with the vehicle control alone received an average score of 4 compared to an average score of 2 from mice that received the high-dose of ACY-738 (FIG. 11 C).

Setting [4] is: both high (20 mg/kg) and low (5 mg/kg) dose.
[5] abbreviates: i.p. 5 days/week, 22 to 38 weeks-of-age, 5 or 20 mg/kg.
Where [6] appears, read: 16 weeks of treatment, dose not stated.

Entries after “also recorded” stand apart in the source; their conditions may differ.

Regarding `O=C(NO)c1cnc(NC2(c3ccccc3)CC2)nc1` [ACY-738], in experiment [1] (setting [4]), the “percentage of pre-B cells in fraction D” value is “significant increase”, the “percentage of pre-B cells in fraction E” value is listed as “significant increase” and the “pre-B cells in fraction F” value is recorded as “decrease”. Moreover, the “pre-B cell population (B220+CD43-) in bone marrow” value in experiment [1] (i.p. 5 days/week, 22 to 38 weeks-of-age, 5 and 20 mg/kg) is recorded as “significantly decreased in a dose-dependent manner”. Also, in experiment [1] (setting [5]), the “percentage of pro-B cells in fraction A” value is recorded as “significantly increased” and the “percentage of pro-B cells in fraction C” value was “significantly increased”. Further, in experiment [1] (i.p. 5 days/week, 22 to 38 weeks-of-age, 5 or 20 mg/kg, vs vehicle), the “percentage of pro-B cells (B220+CD43+) in bone marrow” value was “not significantly altered”. In addition, the “percentage of splenic Treg cells (CD4+Foxp3+CD25+)” value in experiment [2] was “significantly increased”. Also, the “sera IL-1β level” value in the experiment with sera TGF-β and IL-1β (38-week-old NZB/W mice, low and high dose, levels rise with age) is listed as “significantly decreased; also recorded: attenuated the increase”. Moreover, the “sera TGF-β level” value with sera TGF-β and IL-1β (NZB/W mice, 22 to 38 weeks-of-age, 5 and 20 mg/kg, levels fall in vehicle mice with age) is “reverse this trend in a dose-dependent manner; also recorded: attenuated the reduction”. Further, in experiment [3] (5 mg/kg, 5 mg/kg), the “glomerular C3 deposition (score 0-4, fluorescence)” value is reported as “slight decrease; also recorded: no significant effect” and the “glomerular IgG deposition (score 0-4, fluorescence)” value is given as “slight decrease; also recorded: no significant effect”. In addition, in experiment [3] (20 mg/kg (high dose), 20 mg/kg), the “glomerular C3 deposition (score 0-4, fluorescence)” value was “significantly decreased” and the “glomerular IgG deposition (score 0-4, fluorescence)” value is “significantly decreased”. In experiment [3] (setting [6]), the “glomerular C3 deposition level” value is recorded as “significantly decreased” and the “glomerular IgG deposition level” value is “significantly decreased”. In the experiment on NZB/W mice (5 mg/kg, PAS-stained sections), the kidney pathology result was “did not significantly alter”. The SLE renal pathology result with NZB/W mice (20 mg/kg, PAS-stained sections, lack of fibrosis and crescent bodies) is given as “significantly reduced”. Besides, the “average glomerular score (0-4)” value with NZB/W mice (high dose (20 mg/kg), vehicle control average score 4) is recorded as 2.

For the origin of these results see patent US20160228434A1, “TREATMENT OF DISEASES CAUSED BY ABNORMAL LYMPHOCYTE FUNCTION WITH AN HDAC6 INHIBITOR” (priority 2013, published 2016).
